Experimental findings from US11959083B2, “Immunosuppression-reverting oligonucleotides inhibiting the expression of CD39” (Secarna Pharmaceuticals GmbH & Co. KG, priority 2016, dated 2024) are described below.

Series [1] concerns hCD39. Briefly: ATP degradation in primary human CD8+ T cells after hCD39 knockdown (ATP Bioluminescence Assay). It is filed as cell-based. The settings on record: for Relative ATP levels in supernatants of CD8+ T cells 30 minutes after addition of ATP: 5 μM oligonucleotide 6 days, medium = 1. On the procedure: FIG. 11A-11D show knockdown of hCD39 protein (FIG. 11A) and viability (FIG. 11B) of primary human CD8^+ T cells, isolated from peripheral blood using MACS. CD8^+ T cells were activated by plate-bound anti-human CD3 (OKT-3). Activated cells were treated with RPMI-1640 medium, medium supplemented with A04040H (SEQ ID No. 3), and medium supplemented with neg1 at 5 μM, respectively, for 6 days in total. After 3 days, medium was replaced with fresh medium containing 5 μM of A04040H (SEQ ID No. 3) and neg 1, respectively, and hCD39 protein knockdown efficacy (FIG. 11A) and viability (FIG. 11B) were analyzed on day 6 by flow cytometry. Residual hCD39 expression and viability (median of 7-AAD positive cells) is depicted compared to untreated cells (FIG. 11A-11B). The same day, cells were harvested, washed and re-plated at a constant cell number (150.000 cells/Well in a 96-Well plate) in triplicates. Then, 2 μM (FIG. 11C) or 20 μM (FIG. 11D) of ATP was added to cells or cell culture medium without cells and ATP concentration of cell supernatants or cell culture medium was determined after 30 min using the ATP Bioluminescence Assay Kit (Roche).
Additionally, the effect of hCD39 knockdown on ATP degradation was also analyzed in primary human CD8^+ T cells (FIG. 11A-11D). Activated T cells were treated with 5 μM antisense oligonucleotide A04040H (SEQ ID No. 3) or the negative control oligonucleotide neg1 for 6 days (3+3). After 3 days, RPMI-1640 medium was replaced with fresh RPMI-1640 medium containing […] of antisense oligonucleotide. Protein knockdown efficacy (FIG. 11A) and viability (FIG. 11B) were analyzed after 6 days by flow cytometry. […] On day 6, cells were re-plated at a constant cell number and ATP was added at concentrations of 2 μM (FIG. 11C) or 20 μM (FIG. 11D). ATP concentration was measured in the cell supernatants or in cell culture medium after 30 min (Table 15).

Series [2] has as its system hCD39 protein. Briefly: hCD39 protein expression in primary human CD8+ and CD4+ T cells after oligonucleotide removal (flow cytometry). Type of series: cell-based. Particulars: 10 μM for six days with anti-CD3, compared to untreated control cells. On the procedure:
Thereafter, oligonucleotides and anti-CD3 were removed and hCD39 protein expression was analyzed by flow cytometry three, six, and eleven days after oligonucleotide removal. CD39 protein expression is depicted as mean fluorescence intensity (MFI) and was calculated by subtracting the MFI of the unspecific isotype control from the MFI of CD39. Depicted is the mean of duplicate wells+/−SD.
A04040H had shown very potent activity in suppressing hCD39 expression on mRNA- and protein-level in human cancer cell lines. In the next step, its activity in primary human T cells was investigated. Furthermore, the persistence of the effects after antisense oligonucleotide removal was examined. Therefore, CD8^+ and CD4^+ T cells were isolated from peripheral blood and activated for a total treatment time of six days with anti-CD3 in the presence of 10 μM of the hCD39 specific antisense oligonucleotide A04040H (black column) or the control oligonucleotide S6 (white column), which is not complementary to any human mRNA. […] Thereafter, oligonucleotides were removed and hCD39 protein expression was analyzed three, six, and eleven days after oligonucleotide removal by flow cytometry (FIG. 9).

Series [3] deals with hCD39 mRNA. Briefly: IC50 determination / concentration-dependent hCD39 mRNA knockdown in HDLM-2 cells. It is filed as cell-based, human. The settings on record: for mRNA inhibition: HDLM-2, 3 days; for pIC50: hCD39 mRNA, 3 days. In a few lines: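 Antisense oligonucleotides applied to HDLM-2 cells for 3 days, titrated 10 μM down to 4.5 nM. hCD39 mRNA normalized to HPRT1 and expressed as residual level relative to untreated cells (100); mean of triplicates, IC50 from concentration-response.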

pIC50: −log10 of the molar value. l = locked nucleic acid (LNA); d = 2'-deoxy (DNA)

On to “+C*+G*+T*T*T*A*G*G*C*T*A*T*G*T*A*+C*+T*+T (CGTTTAGGCTATGTACTT; chemistry not fully specified) [neg1, negative control antisense oligonucleotide not hybridizing with CD39, described in WO2014154843 A1, reference compound]”, for which the “Relative ATP levels in supernatants of CD8+ T cells 30 minutes after addition of ATP” value in series [1] (Added ATP (2 μmol/1)) is on record as 0; in series [1] (Added ATP (20 μmol/1)) it was 0.12.

For the substance “+G*+T*+T*T*G*T*G*T*G*A*G*A*G*C*+T*+T (antisense GTTTGTGTGAGAGCTT; sugars from the 5' end l3 d11 l2, all phosphorothioate, methylation of C not given here) [A04040H]”, in series [2], the “hCD39 protein expression (MFI) after oligonucleotide removal” value is recorded as “significantly suppressed hCD39 protein expression for a duration of at least six days after removal”. For the same substance, the mRNA inhibition stood at 0.00% in series [3] (0.45 nM, Table 12); 0.00% in series [3] (1.3 nM, Table 12); 0.00% in series [3] (4 nM, Table 12); 22.64% in series [3] (0.0045 μM, Table 8); 12.51% in series [3] (0.0045 μM, Table 9); 0.00% in series [3] (12 nM, Table 12). Moreover, the mRNA inhibition in series [3] (0.013 μM, Table 8) worked out at 40.51%; in series [3] (0.013 μM, Table 9), 36.68%; in series [3] (0.04 μM, Table 8), 62.42%; in series [3] (0.04 μM, Table 9), 74.68%; in series [3] (40 nM, Table 12) it was 27.56%; in series [3] (110 nM, Table 12), 69.84%. For the same substance, the mRNA inhibition in series [3] (0.12 μM, Table 8) worked out at 88.40%; in series [3] (0.12 μM, Table 9), 93.14%; in series [3] (330 nM, Table 12), 91.26%; in series [3] (0.4 μM, Table 8) it was 95.94%; in series [3] (0.4 μM, Table 9), 98.42%; in series [3] (1000 nM, Table 12), 97.06%. In addition, the mRNA inhibition is reported as 98.54% in series [3] (1.1 μM, Table 8); 99.38% in series [3] (1.1 μM, Table 9); 99.01% in series [3] (3.3 μM, Table 8); 99.32% in series [3] (3.3 μM, Table 9); 98.98% in series [3] (10 μM, Table 8); 99.57% in series [3] (10 μM, Table 9). Besides, the “maximal target inhibition (hCD39 mRNA)” value in series [3] (HDLM-2 cells, compared to untreated cells, first IC50 determination) stood at 99%. The pIC50 in series [3] (HDLM-2 cells, first screening round (Table 8)) is 7.60; in series [3] (HDLM-2 cells, second screening round (Table 9)) it was 7.67; in series [3] (HDLM-2 cells, third screening round (Table 12)), 7.28. Besides, the “Relative ATP levels in supernatants of CD8+ T cells 30 minutes after addition of ATP” value in series [1] (Added ATP (2 μmol/1)) is given as 0.59; in series [1] (Added ATP (20 μmol/1)) it was 0.89. In addition, the “ATP concentration compared to neg 1 treated cells” value in series [1] (primary human CD8+ T cells, 5 μM, 6 days) is “about 7 ×”. Besides, the ATP degradation efficacy result in series [1] (primary human CD8+ T cells, 5 μM, 6 days, 2 or 20 μM ATP, 30 min) is recorded as “nearly abolished”.
